Assay results as given in US20230271949A1, “GLP-1R MODULATING COMPOUNDS” (ASCLETIS BIOSCIENCE CO., LTD., priority 2022, published 2023).

Biological target: GLP-1R (Homo sapiens, UniProt P43220)
Assay: GLP-1R agonist cAMP stimulation assay (HTRF cAMP)
Format: cell-based
Settings: HEK293 cell line expressing GLP-1 target; HTRF cAMP agonist mode, 30 min at RT
Method in brief: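 Read-out was HTRF (665/615 ratio), interpolated onto a cAMP standard curve and normalised to DMSO (0%) and maximal GLP-1(7-37) reference (100%) wells. Assay: GLP-1R cells at 1.0×E5/mL incubated with compound dilution series (3-fold, 10 points) for 30 min at room temperature before 60 min detection.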

Sequence of GLP-1R (P43220 24-463): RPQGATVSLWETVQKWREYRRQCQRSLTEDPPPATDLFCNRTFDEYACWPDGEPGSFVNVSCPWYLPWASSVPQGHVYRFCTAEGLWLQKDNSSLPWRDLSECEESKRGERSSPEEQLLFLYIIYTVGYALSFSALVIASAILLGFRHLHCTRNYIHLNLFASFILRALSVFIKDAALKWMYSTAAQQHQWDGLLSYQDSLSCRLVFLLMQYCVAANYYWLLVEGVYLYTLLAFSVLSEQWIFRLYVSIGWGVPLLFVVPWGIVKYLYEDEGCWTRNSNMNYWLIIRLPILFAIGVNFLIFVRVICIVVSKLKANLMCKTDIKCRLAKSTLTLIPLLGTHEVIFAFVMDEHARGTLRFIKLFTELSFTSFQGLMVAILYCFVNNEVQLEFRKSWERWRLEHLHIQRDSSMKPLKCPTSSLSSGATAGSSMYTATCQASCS

Row | Compound | EC50
1 | O=C(Nc1ccc2c(c1)nc(CN1CC=C(c3cccc(OCc4ccc(Cl)cc4F)n3)CC1)n2C[C@@H]1CCO1)c1cc(F)c2[nH]ncc2c1 [Compound 205] | 0.98 nM
2 | O=C(Nc1ccc2c(c1)nc(CN1CC=C(c3cccc(OCc4ccc(Cl)cc4F)n3)CC1)n2C[C@@H]1CCO1)c1ccc2[nH]nnc2c1 [Compound 241] | 0.31 nM
3 | COCCn1c(CN2CCC(c3cccc(OCc4ccc(Cl)cc4F)n3)CC2)nc2cc(C(=O)NCc3ccc(O)nc3)ccc21 [Compound 34] | 90.1 nM
4 | Cc1n[nH]c2c(C(F)(F)F)cc(C(=O)Nc3ccc4c(c3)nc(Cc3ccc(-c5cccc6c5OC(C)(c5ccc(C#N)cc5F)O6)cc3F)n4C[C@@H]3CCO3)cc12 (stereo partly shown) [Compound 325] | 1.05 nM
5 | O=C(Nc1ccc2[nH]nnc2c1)c1ccc2c(c1)nc(CN1CCC(c3cccc(OCc4ccc(Cl)cc4F)n3)CC1)n2C[C@@H]1CCO1 [Compound 193] | 0.21 nM
6 | Cc1cc(NC(=O)c2ccc3c(c2)nc(CN2CC=C(c4cccc(OCc5ccc(C#N)cc5F)n4)CC2)n3C[C@@H]2CCO2)cc2cn[nH]c12 [Compound 188] | 1.19 nM
7 | O=C(Nc1ccc2[nH]c(=O)[nH]c2n1)c1ccc2c(c1)nc(CN1CCC(c3cccc(OCc4ccc(Cl)cc4F)n3)CC1)n2C[C@@H]1CCO1 [Compound 93] | 29.8 nM
8 | CCn1cncc1Cn1c(CN2CCC(c3cccc(OCc4ccc(Cl)cc4F)n3)CC2)nc2cc(NC(=O)c3cc(F)c4[nH]nc(C)c4c3)ccc21 [Compound 259] | 0.91 nM
9 | Cn1c(=O)[nH]c2ccc(NC(=O)c3ccc4c(c3)nc(CN3CCC(c5cccc(OCc6ccc(Cl)cc6F)n5)CC3)n4C[C@@H]3CCO3)cc21 [Compound 91] | 26.2 nM

More lines, in order of falling EC50, values ahead:

Row | EC50 | Compound
10 | 127 nM | Cc1cc(-c2cn(-c3ccc4c(c3)nc(CN3CC=C(c5cccc(OCc6ccc(Cl)cc6F)n5)CC3)n4C[C@@H]3CCO3)cn2)[nH]n1 [Compound 397]
11 | 122 nM | COCCn1c(Cc2ccc(-c3cccc(OCc4ccc(C#N)cc4F)n3)cc2)nc2cc(C(=O)NCCc3ccc(C(=O)O)cc3)ccc21 [Compound 12]
12 | 104 nM | O=C(NC1=Nc2nccn2C1)c1ccc2c(c1)nc(CN1CC=C(c3cccc(OCc4ccc(Cl)cc4F)n3)CC1)n2C[C@@H]1CCO1 [Compound 400]
13 | 90.1 nM | O=C(NCc1ccc(O)cc1)c1ccc2c(c1)nc(CN1CCC(c3cccc(OCc4ccc(Cl)cc4F)n3)CC1)n2C[C@@H]1CCO1 [Compound 24]
14 | 8.73 nM | CC1(c2ccc(Cl)cc2F)Oc2cccc(C3=CCN(Cc4nc5cc(C(=O)Nc6ccc7[nH]nc(F)c7c6)ccc5n4CC4CCO4)CC3)c2O1 (stereo not shown) [Compound 292]
15 | 3.56 nM | Cc1cc(C(=O)Nc2ccc3c(c2)nc(CN2CC=C(c4cccc(OCc5ccc(Cl)cc5F)n4)CC2)n3C[C@@H]2CCO2)c(F)c2c(C)n[nH]c12 [Compound 222]
16 | 2.96 nM | O=C(Nc1ccc2c(c1)nc(CN1CC=C(c3cccc(OCc4ccc(Cl)cc4F)n3)CC1)n2C[C@@H]1CCO1)c1cc(C(F)(F)F)c2[nH]ncc2c1 [Compound 212]
17 | 2.01 nM | Cc1n[nH]c2c(C(F)(F)F)cc(C(=O)Nc3ccc4c(c3)nc(C3CC35CCN(c3cccc(OCc6ccc(Cl)cc6F)n3)CC5)n4C[C@@H]3CCO3)cc12 (stereo partly shown) [Compound 253]
18 | 1.21 nM | Cc1cc(NC(=O)c2ccc3c(c2)nc(CN2CCC(c4cccc(OCc5ccc(Cl)cn5)n4)CC2)n3C[C@@H]2CCO2)cc2c1NC(=O)C21CC1 [Compound 131]
19 | 0.88 nM | Cc1n[nH]c2c(C)cc(NC(=O)c3ccc4c(c3)nc(CN3CC=C(c5cccc(OCc6ccc(Cl)cn6)n5)CC3)n4C[C@@H]3CCO3)cc12 [Compound 165]
20 | 0.81 nM | Cc1n[nH]c2ccc(C(=O)Nc3ccc4c(c3)nc(CN3CCC(c5cccc(OCc6ccc(Cl)cc6F)n5)CC3)n4CCOC(F)(F)F)cc12 [Compound 261]
21 | 0.78 nM | Cc1n[nH]c2c(C(F)(F)F)cc(C(=O)Nc3ccc4c(c3)nc(CN3CC=C(c5cccc(OCc6ccc(Cl)cn6)n5)CC3)n4C[C@@H]3CCO3)cc12 [Compound 213]
22 | 0.77 nM | O=C(Nc1cc(C(F)(F)F)c2c(c1)C1(CC1)C(=O)N2)c1ccc2c(c1)nc(CN1CC=C(c3cccc(OCc4ccc(Cl)cc4F)n3)CC1)n2C[C@@H]1CCO1 [Compound 157]
